The source of these data is the NIST ThermoML archive (doi:10.1016/j.jct.2013.10.016).

Numbers after ± are expanded uncertainties.

The nature of the data set: wn = mass fraction of the nth substance listed. As to conditions: Wilhelmy plate method.

As a reminder, the surface tension liquid-gas is the force per length acting along the surface. As for `NCCO` [2-aminoethan-1-ol] + O, the surface tension liquid-gas was 62.6 ± 2 mN/m (293.2 K, w1 = 0.2); 61.2 ± 2 mN/m (293.2 K, w1 = 0.25); 60.3 ± 2 mN/m (293.2 K, w1 = 0.3); 61.8 ± 2 mN/m (303.2 K, w1 = 0.2); 60.6 ± 2 mN/m (303.2 K, w1 = 0.25); 59.5 ± 2 mN/m (303.2 K, w1 = 0.3). Also, the surface tension liquid-gas (313.2 K, w1 = 0.2) came out at 60.2 ± 2 mN/m; the surface tension liquid-gas (313.2 K, w1 = 0.25) was 59.2 ± 2 mN/m; the surface tension liquid-gas (313.2 K, w1 = 0.3) is 58 ± 2 mN/m; the surface tension liquid-gas (323.2 K, w1 = 0.2) is reported as 58.7 ± 2 mN/m; the surface tension liquid-gas (323.2 K, w1 = 0.25) was found to be 57.7 ± 2 mN/m; the surface tension liquid-gas (323.2 K, w1 = 0.3) was 56.5 ± 2 mN/m.

In the case of `OCCNCCO` [diethanolamine] + O, the surface tension liquid-gas by setting is: (293.2 K, w1 = 0.2) 65.1 ± 2 mN/m; (293.2 K, w1 = 0.25) 64.6 ± 2 mN/m; (293.2 K, w1 = 0.3) 62.8 ± 2 mN/m; (303.2 K, w1 = 0.2) 64.4 ± 2 mN/m; (303.2 K, w1 = 0.25) 62.7 ± 2 mN/m; (303.2 K, w1 = 0.3) 61.3 ± 2 mN/m. In addition, the surface tension liquid-gas is recorded as 63.9 ± 2 mN/m (313.2 K, w1 = 0.2); 61.8 ± 2 mN/m (313.2 K, w1 = 0.25); 60.4 ± 2 mN/m (313.2 K, w1 = 0.3); 61.8 ± 2 mN/m (323.2 K, w1 = 0.2); 59.6 ± 2 mN/m (323.2 K, w1 = 0.25); 58.2 ± 2 mN/m (323.2 K, w1 = 0.3).
